Assay results as given in PMC8041284, “Tunable Methacrylamides for Covalent Ligand Directed Release Chemistry” (Journal of the American Chemical Society, 2021).
Where two headings read alike, the source gives them in different places. *1 amine or outer side, *2 acyl side, *3 side chain or, on linkers, in order; H or OH if unused. Where a SMILES comes first, the peptide text is derived from it. Bridges are numbered along the chain shown (N, C = ends). Roman numbers before positions name the chains, in order. [ ]: non-standard residue; d: D form. The star is where a group is joined. Hexamethylenediamine = C(CCCN[*:2])CCN[*:1]; Benzoyl(4-tBu) = CC(C)(C)c1ccc(C(=O)*)cc1; Dip = N[C@H](C(=O)O)C(c1ccccc1)c1ccccc1; Lys(Et2) = CCN(CC)CCCC[C@H](N)C(=O)O; Chg = N[C@H](C(=O)O)C1CCCCC1; NMeA = CN[C@@H](C)C(=O)O

Target: BTK (Homo sapiens, UniProt Q06187)
Assay: biochemical
[1] = read-out: BTK inhibition (%), 0.75 uM BTK, […] probe 3l, 15 min preincubation

Sequence of BTK (Q06187 402-655 limits assumed): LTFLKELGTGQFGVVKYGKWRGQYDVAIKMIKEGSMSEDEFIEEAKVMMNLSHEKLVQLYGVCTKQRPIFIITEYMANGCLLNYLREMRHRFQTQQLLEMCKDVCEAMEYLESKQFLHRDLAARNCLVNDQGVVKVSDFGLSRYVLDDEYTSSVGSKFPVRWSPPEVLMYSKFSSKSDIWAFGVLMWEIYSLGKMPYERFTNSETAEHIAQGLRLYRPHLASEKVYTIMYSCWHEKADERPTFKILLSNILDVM

Structure (SMILES) | inhibition at 10 µM [1] [%] | inhibition at 10 µM (read-out: BTK inhibition (%)) [%]
CCOc1cc([C@@H](CS(C)(=O)=O)N2C(=O)c3cccc(NC(C)=O)c3C2=O)ccc1OC [PCM-0095620] | 9 | 
COCCCOc1cc(C[C@@H](C[C@H](N)[C@@H](O)C[C@H](C(=O)NCC(C)(C)C(N)=O)C(C)C)C(C)C)ccc1OC [PCM-0214569] | 7 | 
N[C@H]1C[C@@H]1c1ccccc1 [PCM-0095814] | -6.2 | 
NC(=O)c1ccc[n+]([C@@H]2O[C@H](COP(=O)([O-])O)[C@@H](O)[C@H]2O)c1 [PCM-0216232] | -6.8 | 
C[C@]12CC[C@H]3[C@@H](CCC4=CC(=O)C=C[C@@]43C)[C@@H]1CC[C@@H]2O [PCM-0216069] |  | -13.1
CCOCC(O)COc1ccc(NC(=O)CC[S+](C)C)cc1 (stereo not drawn) [PCM-0095295] | 0 | 
Cc1c(Cl)cccc1Nc1ccccc1C(=O)O [PCM-0005612] | -6.2 | 
Oc1ccc(OC2CCCCO2)cc1 (stereo not drawn) [PCM-0095551] | 11.7 | 
CCn1c(=O)c(-c2ccc(-c3cncs3)cc2Cl)cc2cnc(Nc3ccc(N4CCN(C)CC4)cc3)nc21 [PCM-0215453] | 18.6 | 
COc1ccc([C@@H]2CC(=O)c3c(O)cc(O[C@@H]4O[C@H](CO)[C@@H](O)[C@H](O)[C@H]4O[C@@H]4O[C@@H](C)[C@H](O)[C@@H](O)[C@H]4O)cc3O2)cc1 [PCM-0216440] | 2.3 | 
OCc1cc(C(O)CNCCCCCCOCCCCc2ccccc2)ccc1O (stereo not drawn) [PCM-0065569] | -12.4 | 
CCS(=O)(=O)N1CCN(c2ccc(Nc3ncc(C(N)=O)c(NC4CC4)n3)cc2)CC1 [PCM-0215389] | 85.5 | 
C[C@H](CC[C@@]1(O)O[C@H]2C[C@H]3[C@@H]4CC=C5C[C@@H](O[C@@H]6O[C@H](CO)[C@@H](O[C@@H]7O[C@@H](C)[C@H](O)[C@@H](O)[C@H]7O)[C@H](O)[C@H]6O[C@@H]6O[C@@H](C)[C@H](O)[C@@H](O)[C@H]6O)CC[C@]5(C)[C@H]4CC[C@]3(C)[C@H]2[C@@H]1C)CO[C@@H]1O[C@H](CO)[C@@H](O)[C@H](O)[C@H]1O [PCM-0215060] | -28 | 
O=C1Nc2ccc(CN3C(=O)CSC3=O)cc2/C1=C/c1cc(CN2CCOCC2)c[nH]1 [PCM-0215763] | -11 | 
CN[C@@H](C)C(=O)N[C@H](C(=O)N1CCC[C@H]1C(=O)N[C@H](C(=O)NCCCCCCNC(=O)[C@@H](NC(=O)[C@@H]1CCCN1C(=O)[C@@H](NC(=O)[C@H](C)NC)C1CCCCC1)C(c1ccccc1)c1ccccc1)C(c1ccccc1)c1ccccc1)C1CCCCC1 [PCM-0214574] (I: H-[NMeA][Chg]P[Dip] / II: H-[NMeA][Chg]P[Dip]; linker I:C-II:C via Hexamethylenediamine) | -1.5 | 
CC(C)C1=CC2=CC[C@@H]3[C@](C)(CCC[C@@]3(C)C(=O)O)[C@H]2CC1 [PCM-0215977] | -9.3 | 
O=c1[nH]cnc2[nH]ncc12 [PCM-0064482] | 18.7 | 
CCCCOCc1ccc(O)c(OC)c1 [PCM-0215915] | -15.6 | 
CN1CCN(C(=O)/C=C/c2ccc([N+](=O)[O-])o2)CC1 [PCM-0215590] | 4.6 | 
C[C@H](CCC(=O)O)[C@H]1CC[C@H]2[C@@H]3C[C@H](O)[C@@H]4C[C@H](O)CC[C@]4(C)[C@H]3CC[C@]12C [PCM-0214678] | 3.9 | 
O=c1[nH]cnc2nc[nH]c12 [PCM-0091022] | -22.1 | 
CCCCCCCCCCCCCCCC(=O)OC[C@H](O)[C@H]1OC(=O)C(O)=C1O [PCM-0095304] | -34.2 | 
CCN(CC)CCOC(=O)c1ccc(N)cc1 [PCM-0065363] | 3.9 | 

Structure (SMILES) | inhibition at 10 µM [1] [%] | inhibition at 10 µM (read-out: BTK inhibition (%)) [%]
CC1=CC(=O)CC(C)(C)[C@@]1(O)/C=C/C(C)=C\C(=O)O [PCM-0215371] | 9.3 | 
C=CCCCCCCCCC(=O)O[C@H]1CC[C@H]2[C@@H]3CCC4=CC(=O)C=C[C@]4(C)[C@H]3CC[C@]12C [PCM-0215894] |  | 10.9
C[C@H]1CC[C@@]2(O)C(C)(C)[C@@H]3CC[C@@]2(C)[C@H]1C3 [PCM-0215010] | 2.8 | 
NC(=O)c1cnc(N[C@@H]2CCCC[C@@H]2N)nc1Nc1cccc(-n2nccn2)c1 [PCM-0095619] | 70.3 | 
C=C1CC[C@H]2[C@@H](/C=C(/C)C(=O)[C@@]3(O)C[C@H](C)[C@H](O)[C@@H]3[C@H]1O)C2(C)C [PCM-0216650] |  | -9.3
O=c1ccc2ccc3occc3c2o1 [PCM-0214995] |  | -19.3
CN1CCN(c2ccc(C(=O)Nc3n[nH]c4ccc(Cc5cc(F)cc(F)c5)cc34)c(NC3CCOCC3)c2)CC1 [PCM-0215551] | 103 | 
C[C@@H]1C(=O)O[C@H]2[C@@H](O)[C@@]34[C@H]5C[C@@H](C(C)(C)C)[C@]36[C@@H](OC(=O)[C@@H]6O)O[C@@]4(C(=O)O5)[C@@]12O [PCM-0214615] | 16.3 | 
CC1(C)[C@@H](O)CC[C@]2(C)[C@H]3C(=O)C=C4[C@@H]5C[C@@](C)(C(=O)O)CC[C@]5(C)CC[C@@]4(C)[C@]3(C)CC[C@@H]12 [PCM-0214675] | 4.7 | 
Oc1ccc2c(c1)OCO2 [PCM-0214880] | -3.9 | 
CCNC(=O)[C@@H]1CCCN1C(=O)[C@H](CCCN=C(N)N)NC(=O)[C@H](CC(C)C)NC(=O)[C@@H](CC(C)C)NC(=O)[C@H](Cc1ccc(O)cc1)NC(=O)[C@H](CO)NC(=O)[C@H](Cc1c[nH]c2ccccc12)NC(=O)[C@H](Cc1cnc[nH]1)NC(=O)[C@@H]1CCC(=O)N1 [PCM-0214915] | -11.7 | 
Cc1ccc(S(=O)(=O)c2ccc([N+](=O)[O-])o2)cc1 [PCM-0095771] | -10.8 | 
O=[N+]([O-])c1ccc(S(=O)(=O)N2CCN(c3ccnc4cc(Cl)ccc34)CC2)c([N+](=O)[O-])c1 [PCM-0215531] | -12.4 | 
CN([C@@H](Cc1ccc(OS(=O)(=O)c2cccc3cnccc23)cc1)C(=O)N1CCN(c2ccccc2)CC1)S(=O)(=O)c1cccc2cnccc12 [PCM-0215309] | 2.1 | 
N[C@@H]1CCCN(c2c(/C=C3\SC(=O)NC3=O)cccc2-c2ccccc2)C1 [PCM-0095732] | 4.1 | 
C#C[C@]1(O)CC[C@H]2[C@@H]3CCc4cc(OC5CCCC5)ccc4[C@H]3CC[C@@]21C [PCM-0214893] | -8.6 | 
CC(C(=O)O)c1ccc(CC2CCCC2=O)cc1 (stereo not drawn) [PCM-0065463] | 1.7 | 
CCN(CC)CCCC[C@H](NC(=O)[C@H](CC(C)C)NC(=O)[C@H](C)NC(=O)[C@H](Cc1ccccc1)NC(=O)c1ccc(C(C)(C)C)cc1)C(=O)N[C@@H](CO)C(=O)OC [PCM-0215741] ({Benzoyl(4-tBu)}-FAL[Lys(Et2)]S-OMe) | -16.2 | 
NC[C@H]1O[C@H](O[C@H]2[C@H](O)[C@@H](O[C@H]3O[C@H](CO)[C@@H](O)[C@H](N)[C@H]3O)[C@H](N)C[C@@H]2N)[C@H](O)[C@@H](O)[C@@H]1O [PCM-0086137] | 23.8 | 
C=C(C(=O)O)[C@@H]1CC[C@@H](C)[C@@H]2CCC(C)=C[C@@H]21 [PCM-0216417] | 0 | 
c1cncc(-c2cn[nH]n2)c1 [PCM-0215871] | 15.4 | 
Cc1cc(-n2c(=O)[nH]c(=O)n(C)c2=O)ccc1Oc1ccc(SC(F)(F)F)cc1 [PCM-0086289] | -0.8 | 
O=c1cc(-c2ccc(O)c(O)c2O)oc2ccccc12 [PCM-0215990] | 34 | 

Structure (SMILES) | inhibition at 10 µM [1] [%] | inhibition at 10 µM (read-out: BTK inhibition (%)) [%]
CCC(C(=O)O)c1ccc(N2Cc3ccccc3C2=O)cc1 (stereo not drawn) [PCM-0215153] | -18.5 | 
O=C(O)c1ccccc1 [PCM-0090294] | -1.6 | 
CCCCC(C)(O)C/C=C/[C@H]1[C@H](O)CC(=O)[C@@H]1CCCCCCC(=O)OC (stereo partly drawn) [PCM-0215257] | -7.8 | 
Nc1ncnc2c1C(=O)N(c1ccc(C3CCC(CC(=O)O)CC3)cc1)CCO2 (stereo not drawn) [PCM-0095810] | 3.1 | 
OC1OC[C@@H](O)[C@@H](O)[C@H]1O (stereo partly drawn) [PCM-0216193] | 4.6 | 
O=C(O)C(O)C(O)C(=O)O (stereo not drawn) [PCM-0215711] | -0.9 | 
Cc1[nH]c(=O)c(C#N)cc1-c1ccncc1 [PCM-0065386] | -9.3 | 
O=c1c(-n2ccnn2)c[nH]n1-c1cc(N2CCOCC2)ncn1 [PCM-0215593] | -16.2 | 
COc1cc2ncnc(Nc3ccc(Cl)cc3F)c2cc1OC [PCM-0095361] | 31 | 
O=C(c1ccc(Nc2nccc(-c3cc4ccccc4s3)n2)cc1)N1CCC(N2CCCC2)CC1 [PCM-0095335] | 86.2 | 
CC(=O)N1CCC(Nc2cc(C(=O)NC[C@H](O)CN3CCc4ccccc4C3)ncn2)CC1 [PCM-0215901] | -0.8 | 
CC(C)(C)[C@]1(O)C[C@@H]2OC(=O)C[C@@]23C(=O)O[C@@H]2OC(=O)[C@H](O)[C@]213 [PCM-0094827] |  | -6.2
NCc1c[nH]c(=S)n1[C@H]1CCc2c(F)cc(F)cc2C1 [PCM-0214705] | -17.1 | 
CC1=C(/C=C/C(C)=C/C=C/C(C)=C\C(=O)O)C(C)(C)CCC1 [PCM-0065511] | -42.1 | 
CO/N=C(\C(=O)N[C@@H]1C(=O)N2C(C(=O)O)=C(C[N+]3(C)CCCC3)CS[C@H]12)c1csc(N)n1 [PCM-0214905] | -10.1 | 
Cc1ccc(C(=O)c2ccc(CC(=O)O)n2C)cc1 [PCM-0215259] | 9.4 | 
CC(C)c1nc(N(C)S(C)(=O)=O)nc(-c2ccc(F)cc2)c1/C=C/[C@@H](O)C[C@@H](O)CC(=O)O [PCM-0090418] | -4.7 | 
CC(O)[C@H](C)[C@H](N)C(=O)O (stereo partly drawn) [PCM-0216361] | -2.6 | 
CN1CCN(Cc2ccc(Nc3ncc(Cl)c(Nc4ccccc4S(=O)(=O)N(C)C)n3)cc2)CC1 [PCM-0215510] | 67.2 | 
Cc1ccc(NS(=O)(=O)c2ccc3c(c2)C2C=CCC2C(c2ccc(C(=O)O)cc2)N3)cc1C (stereo not drawn) [PCM-0215738] | 92.7 | 
N=C(N)c1ccc(OCCCCCOc2ccc(C(=N)N)cc2)cc1 [PCM-0064878] | -4.7 | 
CCc1cc2c(cc1N1CCC(N3CCOCC3)CC1)C(C)(C)c1[nH]c3cc(C#N)ccc3c1C2=O [PCM-0095523] | 11.7 | 
CN(C)CCOc1ccc(/C(=C(/CCCl)c2ccccc2)c2ccccc2)cc1 [PCM-0086582] | 4.1 | 
